Laboratory results from patent publication US11542313B2, “Incretin analogs and uses thereof” (Eli Lilly and Company, priority 2017, dated 2023).
*1 amine or outer side, *2 acyl side, *3 side chain or, on linkers, in order; H or OH if unused. Where a SMILES comes first, the peptide text is derived from it. Side-chain parts run from the residue outwards. [ ]: non-standard residue; d: D form. The star is where a group is joined. C20 diacid = O=C(O)CCCCCCCCCCCCCCCCCCC(=O)*; γGlu = O=C(O)[C@H](CCC(=O)[*:2])N[*:1]; αMeL = CC(C)C[C@](C)(N)C(=O)O; αMeK = C[C@](N)(CCCCN)C(=O)O; AEEA = NCCOCCOCC(=O)O; Aib = CC(C)(N)C(=O)O

Columns and labels:
hGLP-1R = hGLP-1R (Homo sapiens, UniProt P43220); assay: cAMP assay in HEK293 cells expressing hGLP-1R, 0.1% casein; assay type: cell-based; conditions: in the presence of 0.1% casein; read-out: cAMP EC50, GLP-1R
hGcgR = molecular target: T1, hGcgR (Homo sapiens, UniProt P47871); assay: cAMP assay in HEK293 cells expressing hGcgR, 0.1% casein; assay type: cell-based; conditions: in the presence of 0.1% casein; read-out: cAMP EC50, GcGR
T1 construct: expressed in transfected cells; host or cells: HEK293

[1] = molecular target: T2, human glucagon receptor (GcgR) (Homo sapiens, UniProt P47871); assay: Radioligand competition binding (SPA), human GcgR membranes; conditions: HEK293 membranes, SPA, bacitracin present; mean; read-out: Ki, GcgR
T2 construct: expressed in transfected cells; host or cells: HEK293 (membranes)
Text: (§1) Radioligand competition binding assays are run to determine the equilibrium dissociation constant for exemplary compounds and comparator molecules.
(§2) Competition curves are plotted as the percent specific inhibition (y-axis) versus log concentration of compound (x-axis) and analyzed using a four parameter nonlinear regression fit with variable slope (ABase or Genedata).

hGIPR = molecular target: T3, hGIPR (Homo sapiens, UniProt P48546); assay: cAMP assay in HEK293 cells expressing hGIPR, 0.1% casein; assay type: cell-based; conditions: in the presence of 0.1% casein; read-out: cAMP EC50, GIPR
T3 construct: expressed in transfected cells; host or cells: HEK293
T3 sequence (P48546 22-466): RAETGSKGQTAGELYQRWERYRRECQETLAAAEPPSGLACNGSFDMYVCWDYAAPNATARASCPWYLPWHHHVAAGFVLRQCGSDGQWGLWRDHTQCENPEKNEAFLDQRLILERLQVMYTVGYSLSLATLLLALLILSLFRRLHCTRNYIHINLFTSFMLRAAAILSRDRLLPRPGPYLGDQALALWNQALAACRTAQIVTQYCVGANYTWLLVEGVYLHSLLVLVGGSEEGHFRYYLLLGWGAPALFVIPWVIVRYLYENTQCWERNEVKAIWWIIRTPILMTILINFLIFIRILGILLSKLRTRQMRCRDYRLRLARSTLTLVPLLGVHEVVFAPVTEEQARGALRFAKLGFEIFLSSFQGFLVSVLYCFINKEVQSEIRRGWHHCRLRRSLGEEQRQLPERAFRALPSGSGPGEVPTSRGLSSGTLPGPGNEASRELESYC

GLP-1 receptor (GLP-1R) = molecular target: T4, GLP-1 receptor (GLP-1R) (Homo sapiens, UniProt P43220); assay: Radioligand competition binding (SPA), human GLP-1R membranes; conditions: HEK293 membranes, SPA, bacitracin present; mean; read-out: Ki, GLP-1R
T4 construct: expressed in transfected cells; host or cells: HEK293 (membranes)
Text: as §1, §2

[2] = molecular target: T5, human GIP receptor (GIPR) (Homo sapiens, UniProt P48546); assay: Radioligand competition binding (SPA), human GIPR membranes; conditions: HEK293 membranes, SPA, bacitracin present; mean; read-out: Ki, GIPR
T5 construct: expressed in transfected cells; host or cells: HEK293 (membranes)
T5 sequence (P48546 22-466): T3 sequence (P48546 22-466)
Text: as §1, §2

in vivo = conditions: male, Sprague-Dawley, rat, sc, 100 nmol/kg
Experimental: (§3) The pharmacokinetics of the exemplary analogs are evaluated following a single subcutaneous administration of 100 nM/kg to male Sprague Dawley rats. Blood samples are collected over 120 hours, and resulting individual plasma concentrations are used to calculate pharmacokinetic parameters. Peptide plasma (K3 EDTA) concentrations are determined using a qualified LC/MS method that measured the intact mass of the analog. Each peptide and an analog as an internal standard are extracted from 100% specie specified plasma using methanol with 0.1% formic acid. A Thermo Q-Exactive, High Resolution Instrument, and a Thermo Easy Spray PepMap are combined for LC/MS detection.

[3] = rat, in vivo, sc, 100 nmol/kg
Experimental: as §3

T1 sequence (P47871 26-477): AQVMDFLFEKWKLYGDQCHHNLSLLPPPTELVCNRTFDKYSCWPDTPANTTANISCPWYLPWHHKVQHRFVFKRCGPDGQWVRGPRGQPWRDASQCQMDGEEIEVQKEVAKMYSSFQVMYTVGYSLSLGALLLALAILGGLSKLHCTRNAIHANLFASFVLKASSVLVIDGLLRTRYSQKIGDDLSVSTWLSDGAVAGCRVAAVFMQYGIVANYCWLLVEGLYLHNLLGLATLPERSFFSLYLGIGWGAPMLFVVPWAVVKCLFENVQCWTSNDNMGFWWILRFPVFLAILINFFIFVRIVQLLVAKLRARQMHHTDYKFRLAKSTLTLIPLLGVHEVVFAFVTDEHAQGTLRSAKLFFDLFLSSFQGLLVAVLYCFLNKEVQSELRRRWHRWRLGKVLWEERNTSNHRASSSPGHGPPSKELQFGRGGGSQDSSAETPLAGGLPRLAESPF
T2 sequence (P47871 26-477): as above
hGLP-1R, sequence (P43220 24-463): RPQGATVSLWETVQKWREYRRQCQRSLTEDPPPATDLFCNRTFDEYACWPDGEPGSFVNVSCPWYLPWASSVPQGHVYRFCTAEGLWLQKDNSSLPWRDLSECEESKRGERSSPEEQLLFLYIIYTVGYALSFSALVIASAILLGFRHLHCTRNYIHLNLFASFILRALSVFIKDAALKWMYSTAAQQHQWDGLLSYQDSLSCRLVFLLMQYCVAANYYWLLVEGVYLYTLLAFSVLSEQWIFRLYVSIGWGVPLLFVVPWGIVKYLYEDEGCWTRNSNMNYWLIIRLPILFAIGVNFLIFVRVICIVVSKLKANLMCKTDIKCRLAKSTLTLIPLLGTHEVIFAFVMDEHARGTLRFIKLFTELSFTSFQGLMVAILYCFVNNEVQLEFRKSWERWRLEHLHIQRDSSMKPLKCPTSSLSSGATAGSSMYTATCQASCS
T4 sequence (P43220 24-463): as above

SMILES | EC50 (hGLP-1R) | EC50 (hGcgR) | Ki [1] | EC50 (hGIPR) | Ki (GLP-1 receptor (GLP-1R)) | Ki [2] | CL/F (in vivo) | Tmax (in vivo) | half-life (in vivo) | AUCINF_D_obs [3]
CC[C@H](C)[C@H](NC(=O)[C@H](Cc1ccccc1)NC(=O)[C@H](C)NC(=O)[C@](C)(CCCCN)NC(=O)[C@H](CCC(N)=O)NC(=O)[C@H](C)NC(=O)[C@H](CCCCNC(=O)COCCOCCNC(=O)COCCOCCNC(=O)CC[C@H](NC(=O)CCCCCCCCCCCCCCCCCCC(=O)O)C(=O)O)NC(=O)[C@H](CCCCN)NC(=O)[C@H](CC(=O)O)NC(=O)[C@H](CC(C)C)NC(=O)[C@](C)(CC(C)C)NC(=O)[C@@H](NC(=O)[C@H](CO)NC(=O)[C@H](Cc1ccc(O)cc1)NC(=O)[C@H](CC(=O)O)NC(=O)[C@H](CO)NC(=O)[C@@H](NC(=O)[C@H](Cc1ccccc1)NC(=O)[C@@H](NC(=O)CNC(=O)[C@H](CCC(N)=O)NC(=O)C(C)(C)NC(=O)[C@@H](N)Cc1ccc(O)cc1)[C@@H](C)O)[C@@H](C)O)[C@@H](C)CC)C(=O)N[C@@H](CCC(=O)O)C(=O)N[C@@H](Cc1ccc(O)cc1)C(=O)N[C@@H](CC(C)C)C(=O)N[C@@H](CC(C)C)C(=O)N[C@@H](C)C(=O)NC(C)(C)C(=O)NCC(=O)N1CCC[C@H]1C(=O)N[C@@H](CO)C(=O)N[C@@H](CO)C(=O)NCC(=O)N[C@@H](C)C(=O)N1CCC[C@H]1C(=O)N1CCC[C@H]1C(=O)N1CCC[C@H]1C(=O)N[C@@H](CO)C(N)=O [Example 1] (H-Y[Aib]QGTFTSDYSI[αMeL]LDKK([AEEA-AEEA-γGlu-C20 diacid])AQ[αMeK]AFIEYLLA[Aib]GPSSGAPPPS-NH2; N-terminus assumed) | 0.153 nM | 0.114 nM | 8.41 nM | 0.0523 nM | 2.64 nM | 0.0469 nM | 0.173 mL/min/kg | 8 h | 11.7 h | 95.7 hr*kg*nmol/L/nmol
CC[C@H](C)[C@H](NC(=O)[C@H](Cc1ccccc1)NC(=O)[C@H](C)NC(=O)C(C)(C)NC(=O)[C@H](CCC(N)=O)NC(=O)[C@H](C)NC(=O)[C@H](CCCCNC(=O)COCCOCCNC(=O)CC[C@H](NC(=O)CCCCCCCCCCCCCCCCCCC(=O)O)C(=O)O)NC(=O)[C@H](CCCCN)NC(=O)[C@H](CC(=O)O)NC(=O)[C@H](CC(C)C)NC(=O)[C@](C)(CC(C)C)NC(=O)[C@@H](NC(=O)[C@H](CO)NC(=O)[C@H](Cc1ccc(O)cc1)NC(=O)[C@H](CC(=O)O)NC(=O)[C@H](CO)NC(=O)[C@@H](NC(=O)[C@H](Cc1ccccc1)NC(=O)[C@@H](NC(=O)CNC(=O)[C@H](CCC(N)=O)NC(=O)C(C)(C)NC(=O)[C@@H](N)Cc1ccc(O)cc1)[C@@H](C)O)[C@@H](C)O)[C@@H](C)CC)C(=O)N[C@@H](CCC(=O)O)C(=O)N[C@@H](Cc1ccc(O)cc1)C(=O)N[C@@H](CC(C)C)C(=O)N[C@@H](CC(C)C)C(=O)N[C@@H](CCC(=O)O)C(=O)NC(C)(C)C(=O)NCC(=O)N1CCC[C@H]1C(=O)N[C@@H](CO)C(=O)N[C@@H](CO)C(=O)NCC(=O)N[C@@H](C)C(=O)N1CCC[C@H]1C(=O)N1CCC[C@H]1C(=O)N1CCC[C@H]1C(=O)N[C@@H](CO)C(N)=O [Example 13] (H-Y[Aib]QGTFTSDYSI[αMeL]LDKK([AEEA-γGlu-C20 diacid])AQ[Aib]AFIEYLLE[Aib]GPSSGAPPPS-NH2) | 0.125 nM | 0.0815 nM | 1.91 nM | 0.0391 nM | 6.43 nM | 0.0452 nM | 0.0817 mL/min/kg | 20 h | 21.7 h | 205.7 hr*kg*nmol/L/nmol
CC[C@H](C)[C@H](NC(=O)[C@H](Cc1ccccc1)NC(=O)[C@H](C)NC(=O)C(C)(C)NC(=O)[C@H](CCC(N)=O)NC(=O)[C@H](C)NC(=O)[C@H](CCCCNC(=O)COCCOCCNC(=O)CC[C@H](NC(=O)CCCCCCCCCCCCCCCCCCC(=O)O)C(=O)O)NC(=O)[C@H](CCCCN)NC(=O)[C@H](CC(=O)O)NC(=O)[C@H](CC(C)C)NC(=O)[C@H](CC(C)C)NC(=O)[C@@H](NC(=O)[C@H](CO)NC(=O)[C@H](Cc1ccc(O)cc1)NC(=O)[C@H](CC(=O)O)NC(=O)[C@H](CO)NC(=O)[C@@H](NC(=O)[C@H](Cc1ccccc1)NC(=O)[C@@H](NC(=O)CNC(=O)[C@H](CCC(N)=O)NC(=O)C(C)(C)NC(=O)[C@@H](N)Cc1ccc(O)cc1)[C@@H](C)O)[C@@H](C)O)[C@@H](C)CC)C(=O)N[C@@H](CCC(=O)O)C(=O)N[C@@H](Cc1ccc(O)cc1)C(=O)N[C@@H](CC(C)C)C(=O)N[C@@H](CC(C)C)C(=O)N[C@@H](C)C(=O)NC(C)(C)C(=O)NCC(=O)N1CCC[C@H]1C(=O)N[C@@H](CO)C(=O)N[C@@H](CO)C(=O)NCC(=O)N[C@@H](C)C(=O)N1CCC[C@H]1C(=O)N1CCC[C@H]1C(=O)N1CCC[C@H]1C(=O)N[C@@H](CO)C(N)=O [Example 4] (H-Y[Aib]QGTFTSDYSILLDKK([AEEA-γGlu-C20 diacid])AQ[Aib]AFIEYLLA[Aib]GPSSGAPPPS-NH2) | 0.18 nM | 0.0674 nM | 2.55 nM | 0.0648 nM | 3.54 nM | 0.0374 nM | 0.12 mL/min/kg | 16 h | 19.9 h | 140 hr*kg*nmol/L/nmol
CC[C@H](C)[C@H](NC(=O)[C@H](Cc1ccccc1)NC(=O)[C@H](C)NC(=O)C(C)(C)NC(=O)[C@H](CCC(N)=O)NC(=O)[C@H](C)NC(=O)[C@H](CCCCNC(=O)COCCOCCNC(=O)CC[C@H](NC(=O)CC[C@H](NC(=O)CCCCCCCCCCCCCCCCCCC(=O)O)C(=O)O)C(=O)O)NC(=O)[C@H](CCCCN)NC(=O)[C@H](CC(=O)O)NC(=O)[C@H](CC(C)C)NC(=O)[C@H](CC(C)C)NC(=O)[C@@H](NC(=O)[C@H](CO)NC(=O)[C@H](Cc1ccc(O)cc1)NC(=O)[C@H](CC(=O)O)NC(=O)[C@H](CO)NC(=O)[C@@H](NC(=O)[C@H](Cc1ccccc1)NC(=O)[C@@H](NC(=O)CNC(=O)[C@H](CCC(N)=O)NC(=O)C(C)(C)NC(=O)[C@@H](N)Cc1ccc(O)cc1)[C@@H](C)O)[C@@H](C)O)[C@@H](C)CC)C(=O)N[C@@H](CCC(=O)O)C(=O)N[C@@H](Cc1ccc(O)cc1)C(=O)N[C@@H](CC(C)C)C(=O)N[C@@H](CC(C)C)C(=O)N[C@@H](CCC(=O)O)C(=O)NC(C)(C)C(=O)NCC(=O)N1CCC[C@H]1C(=O)N[C@@H](CO)C(=O)N[C@@H](CO)C(=O)NCC(=O)N[C@@H](C)C(=O)N1CCC[C@H]1C(=O)N1CCC[C@H]1C(=O)N1CCC[C@H]1C(=O)N[C@@H](CO)C(N)=O [Example 19] (H-Y[Aib]QGTFTSDYSILLDKK([AEEA-γGlu-γGlu-C20 diacid])AQ[Aib]AFIEYLLE[Aib]GPSSGAPPPS-NH2; N-terminus assumed) | 0.143 nM | 0.0874 nM | 5.2 nM | 0.0455 nM | 12 nM | 0.0789 nM |  |  |  | 
